Test results reported in patent publication US9988400B2 (Genentech, Inc., priority 2013, dated 2018).

Target: T1, HEK cells stably transfected with tetracycline inducible hNR1 and hNR2A (Homo sapiens, UniProt Q05586+Q12879)
T1 construct: expressed in transfected cells; host or cells: HEK cells, stably transfected, tetracycline/doxycycline inducible
Test: Assay 1: Cell-Based Assay, cytosolic calcium response to positive allosteric modulators (with 30 μM glycine and 300 nM L-glutamate, EC30)
Settings: Table 2; for Max %: responses scaled relative to 100 μM L-glutamate maximal response (100%) and 0 μM L-glutamate (0%); for EC50: cytosolic calcium response, with 30 μM glycine and 300 nM L-glutamate (EC30), — = no plateau was reached
Procedure, shortened: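 Cells induced 24 h with 7.5 μg mL^−1 doxycycline plus 500 μM (+)-ketamine, loaded 60 min at 37 °C with calcium dye in Mg-free HBSS (1.8 mM Ca, probenecid, 10 μM (+)-ketamine, pH 7.15). Peak RFU over 5 min after compound addition, scaled to 100 μM L-glutamate (100%) and 0 μM (0%); four-parameter Hill fit for EC50, max % if no plateau.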

T1 sequence (Q12879 23-1464, other chains not shown): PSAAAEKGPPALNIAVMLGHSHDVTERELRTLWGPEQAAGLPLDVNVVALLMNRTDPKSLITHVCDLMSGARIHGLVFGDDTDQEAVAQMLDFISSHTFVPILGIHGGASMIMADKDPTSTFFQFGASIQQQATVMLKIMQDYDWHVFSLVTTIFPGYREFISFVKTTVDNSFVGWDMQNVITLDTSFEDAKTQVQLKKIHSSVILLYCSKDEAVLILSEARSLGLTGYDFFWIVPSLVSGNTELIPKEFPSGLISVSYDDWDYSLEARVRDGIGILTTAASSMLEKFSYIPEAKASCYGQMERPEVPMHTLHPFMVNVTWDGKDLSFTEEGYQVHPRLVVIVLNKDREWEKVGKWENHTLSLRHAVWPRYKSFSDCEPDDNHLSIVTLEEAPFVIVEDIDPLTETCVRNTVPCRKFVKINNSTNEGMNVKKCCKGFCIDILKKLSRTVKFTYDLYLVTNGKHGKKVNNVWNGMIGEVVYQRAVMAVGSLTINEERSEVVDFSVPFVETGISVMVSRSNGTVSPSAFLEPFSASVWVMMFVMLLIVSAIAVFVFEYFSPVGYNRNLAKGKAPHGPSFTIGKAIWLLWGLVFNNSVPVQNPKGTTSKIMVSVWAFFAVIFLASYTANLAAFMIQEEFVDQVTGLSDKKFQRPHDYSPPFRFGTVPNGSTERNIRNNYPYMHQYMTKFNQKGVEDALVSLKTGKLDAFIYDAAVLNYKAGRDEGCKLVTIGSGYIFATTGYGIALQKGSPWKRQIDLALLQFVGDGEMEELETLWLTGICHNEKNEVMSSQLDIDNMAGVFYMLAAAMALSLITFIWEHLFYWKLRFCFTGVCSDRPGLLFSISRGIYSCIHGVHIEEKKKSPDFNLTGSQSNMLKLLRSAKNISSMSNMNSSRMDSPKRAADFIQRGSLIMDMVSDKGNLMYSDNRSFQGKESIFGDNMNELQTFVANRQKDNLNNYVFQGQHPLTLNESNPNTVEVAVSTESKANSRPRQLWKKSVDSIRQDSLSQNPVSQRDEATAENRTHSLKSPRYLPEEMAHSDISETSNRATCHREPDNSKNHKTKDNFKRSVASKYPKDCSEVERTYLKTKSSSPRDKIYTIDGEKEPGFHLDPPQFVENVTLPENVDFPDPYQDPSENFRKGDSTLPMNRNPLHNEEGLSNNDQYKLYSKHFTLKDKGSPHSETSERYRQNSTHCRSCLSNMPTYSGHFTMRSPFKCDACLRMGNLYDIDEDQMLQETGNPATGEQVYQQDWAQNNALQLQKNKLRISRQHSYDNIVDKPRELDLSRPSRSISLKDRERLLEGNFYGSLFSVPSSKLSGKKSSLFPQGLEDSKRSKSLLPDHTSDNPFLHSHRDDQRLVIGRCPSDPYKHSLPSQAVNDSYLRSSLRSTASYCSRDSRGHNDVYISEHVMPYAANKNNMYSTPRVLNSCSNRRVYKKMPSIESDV

Max %	EC50	Compound
87.9%		Cc1sc2nc(CNc3ccc(F)cc3)cc(=O)n2c1-c1cncnc1 [Example 5.13, 7-((4-fluorophenylamino)methyl)-2-methyl-3-(pyrimidin-5-yl)-5H-thiazolo[3,2-a]pyrimidin-5-one]
111%	7.5 µM	CCCCc1c(C)sc2nc(CN(CC)c3ccc(F)cc3)cc(=O)n12 [Example 5.14, 3-butyl-7-((ethyl(4-fluorophenyl)amino)methyl)-2-methyl-5H-thiazolo[3,2-a]pyrimidin-5-one]
144%	7 µM	CCN(Cc1cc(=O)n2c(-c3cncnc3)c(C3CC3)sc2n1)c1ccc(F)cc1 [Example 5.15, 2-cyclopropyl-7-[(N-ethyl-4-fluoro-anilino)methyl]-3-pyrimidin-5-yl-thiazolo[3,2-a]pyrimidin-5-one]
157%	2.5 µM	CCc1sc2nc(CN(CC)c3ccc(F)cc3)cc(=O)n2c1-c1cncnc1 [Example 5.16, 2-ethyl-7-((ethyl(4-fluorophenyl)amino)methyl)-3-(pyrimidin-5-yl)-5H-thiazolo[3,2-a]pyrimidin-5-one]
157%	0.815 µM	CCN(Cc1cc(=O)n2c(-c3cscn3)c(C)sc2n1)c1ccc(F)cc1 [Example 5.20, 7-[(N-ethyl-4-fluoro-anilino)methyl]-2-methyl-3-thiazol-4-yl-thiazolo[3,2-a]pyrimidin-5-one]
141%	0.584 µM	CCN(Cc1cc(=O)n2c(-c3cccnc3)c(C)sc2n1)c1ccc(F)cc1 [Example 5.21, 7-[(N-ethyl-4-fluoro-anilino)methyl]-2-methyl-3-(3-pyridyl)thiazolo[3,2-a]pyrimidin-5-one]
142%	1.6 µM	CCN(Cc1cc(=O)n2c(-c3ccccc3)c(C)sc2n1)c1ccc(F)cc1 [Example 5.22, 7-[(N-ethyl-4-fluoro-anilino)methyl]-2-methyl-3-phenyl-thiazolo[3,2-a]pyrimidin-5-one]
135%	2.6 µM	CCN(Cc1cc(=O)n2c(C)c(C)sc2n1)c1ccc(F)cc1 [Example 5.23, 7-[(N-ethyl-4-fluoro-anilino)methyl]-2,3-dimethyl-thiazolo[3,2-a]pyrimidin-5-one]
142%	0.731 µM	CCN(Cc1cc(=O)n2c(-c3cncc(F)c3)c(C)sc2n1)c1ccc(F)cc1 [Example 5.24, 7-[(N-ethyl-4-fluoro-anilino)methyl]-3-(5-fluoro-3-pyridyl)-2-methyl-thiazolo[3,2-a]pyrimidin-5-one]
141%	0.7 µM	CCN(Cc1cc(=O)n2c(-c3cccnc3F)c(C)sc2n1)c1ccc(F)cc1 [Example 5.25, 7-[(N-ethyl-4-fluoro-anilino)methyl]-3-(2-fluoro-3-pyridyl)-2-methyl-thiazolo[3,2-a]pyrimidin-5-one]
149%	0.563 µM	CCN(Cc1cc(=O)n2c(C3CC3)c(C)sc2n1)c1ccc(F)cc1 [Example 5.26, 3-cyclopropyl-7-[(N-ethyl-fluoro-anilino)methyl]-2-methyl-thiazolo[3,2-a]pyrimidin-5-one]
139%	1.1 µM	CCN(Cc1cc(=O)n2c(-c3cnccn3)c(C)sc2n1)c1ccc(F)cc1 [Example 5.27, 7-[(N-ethyl-4-fluoro-anilino)methyl]-2-methyl-3-pyrazin-2-yl-thiazolo[3,2-a]pyrimidin-5-one]
147%	0.445 µM	C=C(C)c1c(C)sc2nc(CN(CC)c3ccc(F)cc3)cc(=O)n12 [Example 5.29, 7-[(N-ethyl-4-fluoro-anilino)methyl]-3-isopropenyl-2-methyl-thiazolo[3,2-a]pyrimidin-5-one]
132%	4.3 µM	CCN(Cc1cc(=O)n2c(-c3ccnnc3)c(C)sc2n1)c1ccc(F)cc1 [Example 5.30, 7-[(N-ethyl-4-fluoro-anilino)methyl]-2-methyl-3-pyridazin-4-yl-thiazolo[3,2-a]pyrimidin-5-one]
132%	2.7 µM	CCN(Cc1cc(=O)n2c(-c3cncc(Cl)c3)c(C)sc2n1)c1ccc(F)cc1 [Example 5.31, 3-(5-chloro-3-pyridyl)-7-[(N-ethyl-4-fluoro-anilino)methyl]-2-methyl-thiazolo[3,2-a]pyrimidin-5-one]
123%	4.3 µM	CCN(Cc1cc(=O)n2c(-c3ccncc3)c(C)sc2n1)c1ccc(F)cc1 [Example 5.32, 7-[(N-ethyl-4-fluoro-anilino)methyl]-2-methyl-3-(4-pyridyl)thiazolo[3,2-a]pyrimidin-5-one]
120%	4.2 µM	CCN(Cc1cc(=O)n2c(-c3cnn(C)c3)c(C)sc2n1)c1ccc(F)cc1 [Example 5.33, 7-[(N-ethyl-4-fluoro-anilino)methyl]-2-methyl-3-(1-methylpyrazol-4-yl)thiazolo[3,2-a]pyrimidin-5-one]

Max %	EC50	Compound
118%	2.8 µM	CCN(Cc1cc(=O)n2c(-c3cn[nH]c3)c(C)sc2n1)c1ccc(F)cc1 [Example 5.34, 7-[(N-ethyl-4-fluoro-anilino)methyl]-2-methyl-3-(1H-pyrazol-4-yl)thiazolo[3,2-a]pyrimidin-5-one]
136%	2.7 µM	CCN(Cc1cc(=O)n2c(-c3cncc(C#N)c3)c(C)sc2n1)c1ccc(F)cc1 [Example 5.35, 5-[7-[(N-ethyl-4-fluoro-anilino)methyl]-2-methyl-5-oxo-thiazolo[3,2-a]pyrimidin-3-yl]pyridine-3-carbonitrile]
61.3%		CCN(Cc1cc(=O)n2c(-c3cncc(C(F)(F)F)c3)c(C)sc2n1)c1ccc(F)cc1 [Example 5.36, 7-[(N-ethyl-4-fluoro-anilino)methyl]-2-methyl-3-[5-(trifluoromethyl)-3-pyridyl]thiazolo[3,2-a]pyrimidin-5-one]
152%	0.515 µM	CCN(Cc1cc(=O)n2c(-c3ncco3)c(C)sc2n1)c1ccc(F)cc1 [Example 5.37, 7-[(N-ethyl-4-fluoro-anilino)methyl]-2-methyl-3-oxazol-2-yl-thiazolo[3,2-a]pyrimidin-5-one]
147%	1.1 µM	CCN(Cc1cc(=O)n2c(C(F)(F)F)c(C)sc2n1)c1ccc(F)cc1 [Example 5.38, 7-((ethyl(4-fluorophenyl)amino)methyl)-2-methyl-3-(trifluoromethyl)-5H-thiazolo[3,2-a]pyrimidin-5-one]
149%	1.9 µM	CCc1c(C)sc2nc(CN(CC)c3ccc(F)cc3)cc(=O)n12 [Example 5.40, 3-ethyl-7-((ethyl(4-fluorophenyl)amino)methyl)-2-methyl-5H-thiazolo[3,2-a]pyrimidin-5-one]
125%	2 µM	CCCc1c(C)sc2nc(CN(CC)c3ccc(F)cc3)cc(=O)n12 [Example 5.41, 7-((ethyl(4-fluorophenyl)amino)methyl)-2-methyl-3-propyl-5H-thiazolo[3,2-a]pyrimidin-5-one]
158%	1.1 µM	CCN(Cc1cc(=O)n2c(-c3ccoc3)c(C)sc2n1)c1ccc(F)cc1 [Example 5.44, 7-((ethyl(4-fluorophenyl)amino)methyl)-3-(furan-3-yl)-2-methyl-5H-thiazolo[3,2-a]pyrimidin-5-one]
139%	0.214 µM	CCN(Cc1cc(=O)n2c(-c3ccco3)c(C)sc2n1)c1ccc(F)cc1 [Example 5.45, 7-((ethyl(4-fluorophenyl)amino)methyl)-3-(furan-2-yl)-2-methyl-5H-thiazolo[3,2-a]pyrimidin-5-one]
155%	3.8 µM	Cc1sc2nc(CN3c4ccc(F)cc4CC3C)cc(=O)n2c1-c1ccco1 (stereo not drawn) [Example 5.46, 7-((5-fluoro-2-methylindolin-1-yl)methyl)-3-(furan-2-yl)-2-methyl-5H-thiazolo[3,2-a]pyrimidin-5-one]
151%	0.976 µM	CCN(Cc1cc(=O)n2c(-c3ccsc3)c(C)sc2n1)c1ccc(F)cc1 [Example 5.47, 7-((ethyl(4-fluorophenyl)amino)methyl)-2-methyl-3-(thiophen-3-yl)-5H-thiazolo[3,2-a]pyrimidin-5-one]
136%	6.2 µM	Cc1sc2nc(CN3c4ccc(F)cc4CC3C)cc(=O)n2c1-c1cncnc1 (stereo not drawn) [Example 5.48, 7-((5-fluoro-2-methylindolin-1-yl)methyl)-2-methyl-3-(pyrimidin-5-yl)-5H-thiazolo[3,2-a]pyrimidin-5-one]
127%	12.9 µM	CCN(Cc1cc(=O)n2c(-c3nc(C)cs3)c(C)sc2n1)c1ccc(F)cc1 [Example 5.49, 7-((ethyl(4-fluorophenyl)amino)methyl)-2-methyl-3-(4-methylthiazol-2-yl)-5H-thiazolo[3,2-a]pyrimidin-5-one]
96.8%		CCN(Cc1cc(=O)n2c(-c3ccc(=O)[nH]c3)c(C)sc2n1)c1ccc(F)cc1 [Example 5.50, 7-((ethyl(4-fluorophenyl)amino)methyl)-2-methyl-3-(6-oxo-1,6-dihydropyridin-3-yl)-5H-thiazolo[3,2-a]pyrimidin-5-one]
80.3%	40.7 µM	CCN(Cc1cc(=O)n2c(-c3ccc(N)nc3)c(C)sc2n1)c1ccc(F)cc1 [Example 5.51, 3-(6-aminopyridin-3-yl)-7-((ethyl(4-fluorophenyl)amino)methyl)-2-methyl-5H-thiazolo[3,2-a]pyrimidin-3-one]
58%	1.6 µM	CC#Cc1c(C)sc2nc(CN(CC)c3ccc(F)cc3)cc(=O)n12 [Example 5.52]
